Laboratory results: ChEMBL document CHEMBL1122531 (J Med Chem, 1984)

Assays:
Mus musculus [1] = test: Compound was evaluated in vivo for its effective dose at which half of the mice were effected using Nilsen assay (NA) by administering the compound Subcutaneously; assay type: functional; settings: sc
Mus musculus [2] = test: Compound was evaluated in vivo for its effective dose at which half of the mice were effected using Nilsen assay (NA) by administering the compound perorally (po).; assay type: functional
Mus musculus [3] = test: Compound was evaluated in vivo for its effective dose at which half of the mice were effected using hotplate assay (HPA) by administering the compound perorally (po).; assay type: functional
Mus musculus [4] = test: Compound was evaluated in vivo for its effective dose at which half of the mice were effected using hotplate assay (HPA) by administering the compound subcutaneously.; assay type: functional; settings: sc
Mus musculus [5] = test: In vivo inhibition of subcutaneously administered naloxone-elicited opioid type withdrawal jumping (IWJ) after 72 hours in physically dependent male mice (strain Fullinsdorf-Albino SPF). Dose 0.005 g/uM; assay type: functional; settings: sc
Opioid receptor [6] = molecular target: T1, Opioid receptor (Rattus norvegicus, UniProt P33533+P34975+P33535); assay type: cell membranes, Brain, Membrane
Opioid receptor [7] = molecular target: T1, Opioid receptor; assay type: cell membranes, Brain, Membrane; remark: listed apart in the source
Oryctolagus cuniculus [8] = test: Compound was evaluated in vivo for the respiratory activity in four conscious rabbits. The percent change in respiration rate in comparison to the 10-minute period prior to the injection, dose 0.005 g/uM; assay type: functional
Oryctolagus cuniculus [9] = test: Compound was evaluated in vivo for the respiratory activity in four conscious rabbits. The percent change of the respiratory volume in comparison to the 10-minute prior to the injection, dose 0.005 g/uM; assay type: functional
Mus musculus [10] = test: In vivo inhibition of subcutaneously administered naloxone-elicited opioid type withdrawal jumping (IWJ) after 72 hours in physically dependent male mice (strain Fullinsdorf-Albino SPF). Dose 0.41 g/uM; assay type: functional; settings: sc
Oryctolagus cuniculus [11] = test: Compound was evaluated in vivo for the respiratory activity in four conscious rabbits. The percent change in respiration rate in comparison to the 10-minute period prior to the injection, dose 0.41 g/uM; assay type: functional
Oryctolagus cuniculus [12] = test: Compound was evaluated in vivo for the respiratory activity in four conscious rabbits. The percent change of the respiratory volume in comparison to the 10-minute prior to the injection, dose 0.41 g/uM; assay type: functional
Mus musculus [13] = test: Compound was evaluated in vivo for its effective dose at which half of the mice were effected using hotplate assay (HPA) by administering the compound perorally (po); assay type: functional
Mus musculus [14] = test: Compound was evaluated in vivo for its effective dose at which half of the mice were effected using hotplate assay (HPA) by administering the compound subcutaneously; assay type: functional; settings: sc
Mus musculus [15] = test: Compound was evaluated in vivo for its effective dose at which half of the mice were effected using Nilsen assay (NA) by administering the compound perorally (po); assay type: functional
Oryctolagus cuniculus [16] = test: Compound was evaluated in vivo for the respiratory activity in four conscious rabbits. The percent change in respiration rate in comparison to the 10-minute period prior to the injection, dose 0.08 kg/uM; assay type: functional
Oryctolagus cuniculus [17] = test: Compound was evaluated in vivo for the respiratory activity in four conscious rabbits. The percent change of the respiratory volume in comparison to the 10-minute prior to the injection, dose 0.08 kg/uM; assay type: functional
Mus musculus [18] = test: In vivo inhibition of subcutaneously administered naloxone-elicited opioid type withdrawal jumping (IWJ) after 72 hours in physically dependent male mice (strain Fullinsdorf-Albino SPF), dose 0.08 kg/uM; assay type: functional; settings: sc
Mus musculus [19] = test: In vivo inhibition of subcutaneously administered naloxone-elicited opioid type withdrawal jumping (IWJ) after 72 hours in physically dependent male mice (strain Fullinsdorf-Albino SPF), dose 0.17 kg/uM; assay type: functional; settings: sc
Oryctolagus cuniculus [20] = test: Compound was evaluated in vivo for the respiratory activity in four conscious rabbits. The percent change in respiration rate in comparison to the 10-minute period prior to the injection, dose 0.17 kg/uM; assay type: functional
Oryctolagus cuniculus [21] = test: Compound was evaluated in vivo for the respiratory activity in four conscious rabbits. The percent change of the respiratory volume in comparison to the 10-minute prior to the injection, dose 0.17 kg/uM; assay type: functional
Mus musculus [22] = test: In vivo inhibition of subcutaneously administered naloxone-elicited opioid type withdrawal jumping (IWJ) after 72 hours in physically dependent male mice (strain Fullinsdorf-Albino SPF), dose 0.017 g/uM; assay type: functional; settings: sc
Oryctolagus cuniculus [23] = test: Compound was evaluated in vivo for the respiratory activity in four conscious rabbits. The percent change in respiration rate in comparison to the 10-minute period prior to the injection, dose 0.017 g/uM; assay type: functional
Oryctolagus cuniculus [24] = test: Compound was evaluated in vivo for the respiratory activity in four conscious rabbits. The percent change of the respiratory volume in comparison to the 10-minute prior to the injection, dose 0.017 g/uM; assay type: functional
Mus musculus [25] = test: In vivo inhibition of subcutaneously administered naloxone-elicited opioid type withdrawal jumping (IWJ) after 72 hours in physically dependent male mice (strain Fullinsdorf-Albino SPF).; assay type: functional; settings: sc
Oryctolagus cuniculus [26] = test: Compound was evaluated in vivo for the respiratory activity in four conscious rabbits. The percent change in respiration rate in comparison to the 10-minute period prior to the injection, dose 0.67 kg/uM; assay type: functional
Oryctolagus cuniculus [27] = test: Compound was evaluated in vivo for the respiratory activity in four conscious rabbits. The percent change of the respiratory volume in comparison to the 10-minute prior to the injection, dose 0.67 kg/uM; assay type: functional
Mus musculus [28] = test: In vivo inhibition of subcutaneously administered naloxone-elicited opioid type withdrawal jumping (IWJ) after 72 hours in physically dependent male mice (strain Fullinsdorf-Albino SPF), dose 0.18 kg/uM; assay type: functional; settings: sc
Oryctolagus cuniculus [29] = test: Compound was evaluated in vivo for the respiratory activity in four conscious rabbits. The percent change in respiration rate in comparison to the 10-minute period prior to the injection, dose 0.18 kg/uM; assay type: functional
Oryctolagus cuniculus [30] = test: Compound was evaluated in vivo for the respiratory activity in four conscious rabbits. The percent change of the respiratory volume in comparison to the 10-minute prior to the injection, dose 0.18 kg/uM; assay type: functional
Oryctolagus cuniculus [31] = test: Compound was evaluated in vivo for the respiratory activity in four conscious rabbits. The percent change in respiration rate in comparison to the 10-minute period prior to the injection, dose 0.03 kg/uM; assay type: functional
Oryctolagus cuniculus [32] = test: Compound was evaluated in vivo for the respiratory activity in four conscious rabbits. The percent change of the respiratory volume in comparison to the 10-minute prior to the injection, dose 0.03 kg/uM; assay type: functional
Mus musculus [33] = species: Mus musculus; test: animal or person; settings: sc, 72 h

| Structure (SMILES) | ED50 (Mus musculus [1]) [µmol/kg] | ED50 (Mus musculus [4]) [µmol/kg] | IC50 (Opioid receptor [6]) [pM] | IC50 (Opioid receptor [7]) [pM] | ED50 (Mus musculus [13]) [µmol/kg] | ED50 (Mus musculus [14]) [µmol/kg] | ED50 (Mus musculus [15]) [µmol/kg] | further results |
| --- | --- | --- | --- | --- | --- | --- | --- | --- |
| Br.CO[C@@]12CCC(=O)[C@@H]3Oc4c(O)ccc5c4[C@@]31CCN(C)C2C5 | 0.02 | 0.008 | 3 | 80 |  |  |  | ED50 (Mus musculus [2]): 0.5 µmol/kg; ED50 (Mus musculus [3]): 0.5 µmol/kg; ED50 (Mus musculus [5]): 0.08 µmol/kg; Change (Oryctolagus cuniculus [8]): -33%; Change (Oryctolagus cuniculus [9]): -26% |
| Br.CO[C@@]12CCC(=O)[C@@H]3Oc4c(OCc5ccccc5)ccc5c4[C@@]31CCN(C)C2C5 |  | 2.7 | 800 | 9000 |  |  |  | ED50 (Mus musculus [10]): 5.3 µmol/kg; Change (Oryctolagus cuniculus [11]): -38%; Change (Oryctolagus cuniculus [12]): -32% |
| CN1CC[C@]23CC(=O)CC[C@@]2(O)[C@H]1Cc1cccc(O)c13 |  |  | 200 | 3400 | 3.5 | 2 |  |  |
| COc1cccc2c1[C@]13CCN(C)[C@H](C2)[C@]1(OC)CCC(=O)C3 | 0.06 |  | 300 | 3500 | 1.1 | 0.06 | 1.6 | Change (Oryctolagus cuniculus [16]): -66 µM/kg; Change (Oryctolagus cuniculus [17]): -64%; ED50 (Mus musculus [18]): 2.4 µmol/kg |
| COc1ccc2c(c1O)[C@]13CCN(C)[C@H](C2)[C@]1(OC)CCC(=O)C3 | 0.5 |  | 500 | 11000 | 2.4 | 0.8 | 5.4 |  |
| CO[C@@]12CCC(=O)C[C@@]13CCN(C)[C@@H]2Cc1cccc(O)c13 | 0.4 |  | 20 | 700 | 1.2 | 0.5 | 1 | ED50 (Mus musculus [19]): 2.9 µmol/kg; Change (Oryctolagus cuniculus [20]): -32%; Change (Oryctolagus cuniculus [21]): -40% |
| COc1ccc2c(c1OC)[C@]13CCN(C)[C@H](C2)[C@]1(OC)CCC(=O)C3 | 0.05 |  | 85 | 850 | 0.3 | 0.06 | 0.6 | ED50 (Mus musculus [22]): 1.6 µmol/kg; Change (Oryctolagus cuniculus [23]): -50%; Change (Oryctolagus cuniculus [24]): -48% |
| COc1ccc2c(c1OC)[C@]13CCN(C)[C@H](C2)[C@]1(O)CCC(=O)C3 | 0.3 |  | 500 | 1200 |  | 0.4 |  |  |
| CN1CC[C@]23CC(=O)CC[C@@]2(O)[C@H]1Cc1ccccc13 | 2 |  | 300 | 12000 |  | 1.8 |  |  |
| CO[C@@]12CCC(=O)[C@@H]3Oc4cccc5c4[C@@]31CCN(C)[C@@H]2C5 | 0.3 | 0.3 | 200 | 16000 |  |  |  | ED50 (Mus musculus [2]): 4.7 µmol/kg; ED50 (Mus musculus [3]): 2.8 µmol/kg; ED50 (Mus musculus [25]): 14 µmol/kg; Change (Oryctolagus cuniculus [26]): -75%; Change (Oryctolagus cuniculus [27]): -68% |
| CN1CC[C@]23c4c5cccc4O[C@H]2C(=O)CC[C@@]3(O)[C@H]1C5 |  | 1.6 | 1400 | 16000 |  |  |  | ED50 (Mus musculus [3]): 31 µmol/kg |
| COc1cccc2c1[C@]13CCN(C)[C@H](C2)[C@]1(O)CCC(=O)C3 |  |  | 750 | 3700 | 5 | 0.5 |  |  |
| CO[C@@]12CCC(=O)C[C@@]13CCN(C)[C@@H]2Cc1ccccc13 | 0.2 |  | 200 | 6000 | 2.2 | 0.1 | 2.3 | ED50 (Mus musculus [28]): 7 µmol/kg; Change (Oryctolagus cuniculus [29]): -52%; Change (Oryctolagus cuniculus [30]): -48% |
| CN1CC[C@]23c4c5ccc(O)c4O[C@H]2[C@@H](O)C=C[C@H]3[C@H]1C5.Cl [MORPHINE HYDROCHLORIDE] |  |  |  |  |  |  |  | Change (Oryctolagus cuniculus [31]): -43%; Change (Oryctolagus cuniculus [32]): 38.3%; ED50 (Mus musculus [33]): 59 µmol/kg |
| CN1CC[C@]23c4c5ccc(O)c4O[C@H]2C(=O)CC[C@@]3(O)[C@H]1C5 [OXYMORPHONE] |  | 0.3 |  |  |  |  |  | ED50 (Mus musculus [3]): 3 µmol/kg |
